Measurements as given in patent publication US20090004664A1, “HCV NS3 replicon shuttle vectors” (ROCHE PALO ALTO LLC, priority 2007, published 2009).

Experiments:
Type in all cases: cell-based, HCV
[1] = test system: replicon containing patient-derived NS3 of sample TN-132 (V36M mutation in the NS3 gene); assay: Replicon phenotypic assay, patient sample TN-132; details: sample TN-132 carrying V36M mutation in the NS3 gene
Experimental: (§1) Five micrograms of DNA plasmids were linearized by Sca I restriction enzyme (Roche). After overnight digestion at 37° C., the DNA was purified using Qiagen PCR purification kit. One microgram of linearized DNA was used for the in vitro transcription using T7 Mega script kit following manufacturer's protocol (Ambion). After 2 hours of incubation at 37° C., DNase treatment was performed for 30 minutes at 37° C. to remove the DNA template. In vitro transcribed RNA was then purified using NucAway Spin Column following manufacturer's protocol (Ambion).
(§2) Cured hepatoma cell line Huh7 were cultured at 37° C. in a humidified atmosphere with 5% CO2 in Dulbecco's Modified Eagle Medium (DMEM) supplemented with Glutamax™ and 100 mg/ml sodium pyruvate (Cat# 10569-010). The medium was further supplemented with 10% (v/v) FBS (Cat# 16000-036) and 1% (v/v) penicillin/streptomycin (Cat# 15140-122). All reagents were from Invitrogen/Gibco.
(§3) Four million cured Huh7 cells were transfected with 5 μg of in vitro transcribed RNA using electroporation. […] Inhibitors were added 24 hours post-transfection in 3 fold dilutions at a final DMSO concentration of 1% and firefly luciferase reporter signal was read 72 hours after addition of inhibitors using the Luciferase Assay system (Promega, cat #E1501). […]

[2] = test system: replicon containing patient-derived NS3 2209-23; assay: Replicon phenotypic assay, replicon containing patient-derived NS3 2209-23; details: Hepatitis C virus, Huh-7; 2209-23 replicon in cured Huh7 cells; inhibitor added 24 h post-transfection, luciferase read 72 h later
Experimental: as §1, §2, §3

[3] = test system: Genotype-1a template NS3 shuttle vector (H77NS3) replicon; assay: Replicon phenotypic assay (transient replicon, firefly luciferase), Genotype-1a template NS3 shuttle vector; details: Hepatitis C virus, Huh-7; H77 NS3 replicon in cured Huh7 cells; inhibitor added 24 h post-transfection, luciferase read 72 h later
Experimental: as §1, §2, §3

[4] = test system: replicon containing patient-derived NS3 TN132-2 (NS3 V36M, GT1a clinical isolate TN132); assay: Replicon phenotypic assay, replicon containing patient-derived NS3 TN132-2; details: Hepatitis C virus, Huh-7
Experimental: as §1, §2, §3

[5] = test system: replicon containing patient-derived NS3 TN132-6 (NS3 V36M, GT1a clinical isolate TN132); assay: Replicon phenotypic assay, replicon containing patient-derived NS3 TN132-6; details: Hepatitis C virus, Huh-7
Experimental: as §1, §2, §3

[6] = test system: replicon containing patient-derived NS3 TN132-1 (NS3 V36M, GT1a clinical isolate TN132); assay: Replicon phenotypic assay, replicon containing patient-derived NS3 TN132-1; details: Hepatitis C virus, Huh-7
Experimental: as §1, §2, §3

Question: `CCC[C@H](NC(=O)[C@@H]1[C@H]2CCC[C@H]2CN1C(=O)[C@@H](NC(=O)[C@@H](NC(=O)c1cnccn1)C1CCCCC1)C(C)(C)C)C(=O)C(=O)NC1CC1` [VX-950] was tested. Which “sensitivity of sample TN-132 to the inhibitor” value [1] did it give?
Answer: reduced sensitivity

Question: What about the IC50 [2] of the same molecule?
Answer: 630 nM

Question: And the IC50 [3]?
Answer: 440 nM

Question: And the IC50 [4]?
Answer: 2610 nM

Question: What about the IC50 [5] of the same molecule?
Answer: 1470 nM

Question: And the IC50 [6]?
Answer: 2370 nM
